Laboratory results published in patent publication US20230227411A1, “Benzimidazole Derivatives” (Hoffmann-La Roche Inc., priority 2020, published 2023).
pIC50: −log10 of the molar value.

What follows are compounds tested against T1, human cGAS (residues 161-522) (Homo sapiens, UniProt Q8N884) (assay: Malachite Green assay to measure cGAS activity). Conditions: coupled enzymatic assay, phosphate detection by Malachite Green; 25 nM cGAS, 80 μM ATP, 80 μM GTP, 100 nM ISD, 4 hour at RT.
T1 construct: Recombinantly expressed purified human cGAS (residues 161-522) was used at 25 nM; made in house
T1 sequence (Q8N884 161-522): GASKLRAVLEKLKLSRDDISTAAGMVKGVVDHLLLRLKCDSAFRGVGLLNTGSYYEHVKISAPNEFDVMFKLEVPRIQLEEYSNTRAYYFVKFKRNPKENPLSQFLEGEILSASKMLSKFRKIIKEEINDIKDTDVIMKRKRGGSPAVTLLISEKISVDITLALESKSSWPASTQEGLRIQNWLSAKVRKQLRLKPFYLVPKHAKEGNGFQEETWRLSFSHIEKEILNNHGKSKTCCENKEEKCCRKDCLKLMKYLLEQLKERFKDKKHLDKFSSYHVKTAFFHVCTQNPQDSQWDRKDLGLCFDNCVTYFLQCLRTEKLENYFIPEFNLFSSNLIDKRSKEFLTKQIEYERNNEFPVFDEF
Type: biochemical
Procedure: Malachite Green Assay to Measure cGAS Activity
Compounds were tested for cGAS inhibition in a coupled enzymatic assay based on Phosphate detection by Malachite Green. Final assay conditions were 20 mM TRIS pH 7.5 (Applichem), 5 mM MgCl2 (Sigma) and 0.01% BSA (Sigma) supplemented with 80 μM ATP (Sigma), 80 μM GTP (Sigma) and 100 nM Interferon Stimulating DNA (ISD) (Microsynth). Recombinantly expressed purified human cGAS (residues 161-522) was used at 25 nM.
All compounds were prepared as 10 mM stock solutions in DMSO and a 16 pt dilution series in DMSO with a dilution factor of 2.5 was prepared. 1 μL of DMSO dilution series was transferred to 32.3 μL reaction buffer, mixed by pipetting up/down, spun for 1 minute at 3000 rpm and was visually inspected for precipitation. 5 μL of 3-fold enzyme stock solution were transferred to an empty 384-well Black/Clear Flat Bottom Polystyrene NBS (Corning) rows 3-24. Rows 1-2 were filled with assay buffer. Plates were spun 10 seconds at 1000 rpm (164×g). 5 μL of compound intermediate dilution was added and mixed by pipetting up/down to rows 3-24. Rows 1-2 were filled with 3.1% DMSO assay buffer. Plates were spun 10 seconds at 1000 rpm (164×g). 5 μL 3-fold Nucleotide/DNA mix was added to all wells to start the reaction. Plates were spun 10 seconds at 1000 rpm (164×g) and incubated for 4 hour at room temperature (RT) in the dark. 5 μL 4 U/mL PPase (Sigma) were added to all wells. Plates spun 10 seconds at 1000 rpm (164×g). 10 μL BioMol green Solution (Enzo Life Sciences) was added to all wells. Plates spun 10 seconds at 1000 rpm (164×g) and incubated 30 minutes at RT in the dark. Absorbance data was collected 620 nm on an EnVision Multilable Reader (Perkin Elmer) and the following measurement settings were used: excitation filter photometric was 620 nm; excitation from the top; measurement height was 1 mm; number of flashes was 30; number of flashes integrated was 1.
All plates are checked for abnormalities and outliers in the Blank Control (no protein, row 1) and the Neutral Control (no compound, row 2) are excluded using the 3*SD rule. Data was normalized to 0 and 100% by Blank and Neutral Control and each curve was fitted and judged using the 4 parameter logistic equation to determine the IC50 for cGAS inhibition.
Table 1 provides IC50 values (μM) for cGAS inhibition obtained for particular examples of the present invention as measured by the above-described assay.

SMILES | pIC50
Cc1ccc(-c2cc(C(=O)O)c3c(c2)ncn3-c2ccccc2)c(Cl)c1 [Example 1, 5-(2-Chloro-4-methylphenyl)-1-phenyl-1H-benzo[d]imidazole-7-carboxylic acid] | 5.95
CC(=O)NCCCn1cnc2cc(-c3ccc(C)cc3Cl)cc(C(=O)O)c21 [Example 2, 1-(3-Acetamidopropyl)-5-(2-chloro-4-methylphenyl)-1H-benzo[d]imidazole-7-carboxylic acid] | 5.63
Cc1ccc(-c2cc(C(=O)O)c3c(c2)ncn3CCCNS(C)(=O)=O)c(Cl)c1 [Example 3, 5-(2-Chloro-4-methylphenyl)-1-(3-(methylsulfonamido)propyl)-1H-benzo[d]imidazole-7-carboxylic acid] | 5.87
Cc1ccc(-c2cc(C(=O)O)c3c(c2)ncn3Cc2cccc(Cl)c2)c(Cl)c1 [Example 4, 5-(2-Chloro-4-methylphenyl)-1-(3-chlorobenzyl)-1H-benzo[d]imidazole-7-carboxylic acid] | 5.59
Cc1ccc(-c2cc(C(=O)O)c3c(c2)ncn3Cc2ccncc2)c(Cl)c1 [Example 5, 5-(2-Chloro-4-methylphenyl)-1-(pyridin-4-ylmethyl)-1H-benzo[d]imidazole-7-carboxylic acid] | 6.06
Cc1ccc(-c2cc(C(=O)O)c3c(c2)ncn3Cc2cccnc2)c(Cl)c1 [Example 6, 5-(2-Chloro-4-methylphenyl)-1-(pyridin-3-ylmethyl)-1H-benzo[d]imidazole-7-carboxylic acid] | 5.68
Cc1ccc(-c2cc(C(=O)O)c3c(c2)ncn3Cc2ccccn2)c(Cl)c1 [Example 7, 6-(2-Chloro-4-methylphenyl)-3-(pyridin-2-ylmethyl)benzimidazole-4-carboxylic acid] | 5.75
Cc1ccc(-c2cc(C(=O)O)c3c(c2)ncn3CCN(C)C)c(Cl)c1 [Example 8, 5-(2-Chloro-4-methylphenyl)-1-(2-(dimethylamino)ethyl)-1H-benzo[d]imidazole-7-carboxylic acid] | 5.69
COCCn1cnc2cc(-c3ccc(C)cc3Cl)cc(C(=O)O)c21 [Example 9, 5-(2-Chloro-4-methylphenyl)-1-(2-methoxyethyl)-1H-benzo[d]imidazole-7-carboxylic acid] | 5.52
Cc1ccc(-c2cc(C(=O)O)c3c(c2)ncn3C2CC2)c(Cl)c1 [Example 10, 5-(2-Chloro-4-methylphenyl)-1-cyclopropyl-1H-benzo[d]imidazole-7-carboxylic acid] | 5.32
CCn1cnc2cc(-c3cc(F)c(C)cc3Cl)cc(C(=O)O)c21 [Example 11, 5-(2-Chloro-5-fluoro-4-methylphenyl)-1-ethyl-1H-benzo[d]imidazole-7-carboxylic acid] | 5.71
CCn1cnc2cc(-c3ccc(C)cc3Cl)cc(C(=O)O)c21 [Example 12, 5-(2-Chloro-4-methylphenyl)-1-ethyl-1H-benzo[d]imidazole-7-carboxylic acid] | 5.55
Cc1ccc(-c2cc(C(=O)O)c3c(c2)ncn3CC(F)(F)F)c(Cl)c1 [Example 13, 5-(2-Chloro-4-methylphenyl)-1-(2,2,2-trifluoroethyl)-1H-benzo[d]imidazole-7-carboxylic acid] | 5.48
Cc1ccc(-c2cc(C(=O)O)c3c(c2)ncn3CCc2ccccc2)c(Cl)c1 [Example 14, 5-(2-Chloro-4-methylphenyl)-1-phenethyl-1H-benzo[d]imidazole-7-carboxylic acid] | 5.73
Cc1ccc(-c2cc(C(=O)O)c3c(c2)ncn3Cc2ccccc2)c(Cl)c1 [Example 15, 1-Benzyl-5-(2-chloro-4-methylphenyl)-1H-benzo[d]imidazole-7-carboxylic acid] | 5.62
